Where “and” joins values, the source holds several entries; their conditions need not be identical. Equal entries are not always repeated. Where two headings read alike, the source gives them in different places. Marks after values point to notes of the source that are not given here.
Experiments:
[1] = tested on: EfΔbacA cells (pIL252 empty vector); experiment: spot assay on bacA-deleted strain; format: cell-based, Enterococcus faecalis; settings: spot on BHI agar
BacAef [2] = molecular target: T1, BacAef (Enterococcus faecalis, UniProt A0ACD6TE02); experiment: DSS crosslinking; format: binding; settings: BacAef and peptide 17 μM each, DSS 100- or 1000-fold excess, 30 min, 4 °C
Experimental: Crosslinking experiments were performed using the amine-reactive, membrane-permeable, and non-cleavable crosslinker disuccinimidyl suberate (DSS) purchased from Sigma. EntC peptides and BacA protein were mixed at equimolar concentrations (17 μM) in buffer D in the presence of an excess of DSS crosslinker (1000-fold or 100-fold) in a final reaction volume of 20 μl. The reaction was incubated for 30 min at 4°C, and any unreacted DSS was quenched with 50 mM Tris-HCl. After separation on a 12% acrylamide gel, proteins were electrotransferred onto polyvinylidene difluoride (PVDF) membrane, and BacA was detected using peroxidase-coupled anti-His tag antibody (Penta-His HRP conjugate from Qiagen, RRID: AB_3699318) by chemiluminescence detection (Western Lightning Plus-ECL, PerkinElmer) using the ChemiDoc MP system (Bio-Rad).

[3] = tested on: EfΔbacA cells carrying pIL:bacAef; experiment: spot assay on bacA-complemented strain; format: cell-based, Enterococcus faecalis; settings: spot on BHI agar
BacAef S26A = BacAef S26A (Enterococcus faecalis, UniProt A0ACD6TE02, S38A); experiment: ITC, BacAef S26A; format: binding; settings: 20 °C
Experimental: (§1) The experiments were carried out at 20 °C.

[4] = tested on: E. faecalis EfΔbacA cells expressing BacAef K209A D110A; experiment: survival test; format: cell-based, Enterococcus faecalis; settings: 0.5 μM EntC, 30 min, 37 °C, p ≤ 0.001, three experiments
BacAec [5] = molecular target: T2, BacAec (Escherichia coli, UniProt P60932); settings: highest concentration tested 100 μM
T2 sequence (P60932 whole entry): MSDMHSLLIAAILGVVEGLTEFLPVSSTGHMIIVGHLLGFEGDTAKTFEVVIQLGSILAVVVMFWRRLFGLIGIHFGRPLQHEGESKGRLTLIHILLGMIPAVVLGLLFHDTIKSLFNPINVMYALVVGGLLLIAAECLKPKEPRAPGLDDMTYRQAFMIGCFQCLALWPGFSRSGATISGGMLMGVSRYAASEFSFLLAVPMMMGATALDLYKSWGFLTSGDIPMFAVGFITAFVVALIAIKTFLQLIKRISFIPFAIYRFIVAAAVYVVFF
Experimental: (§2) The reconstitution of BacA and PgpB in liposomes was achieved through adapted protocols previously described ([48]). Liposomes were prepared by rehydrating a lipid film of DOPC: DOPG: DOPE (3 mg: 0.75 mg: 1.25 mg) after 4 h of desiccation by adding 1 ml of buffer (20 mM HEPES, pH 7.5, 50 mM NaCl, 15% glycerol). […] The lipid suspension underwent 10 freeze-thaw cycles in liquid nitrogen and was extruded through a 100 nm polycarbonate membrane (Millipore). Protein reconstitution was performed by destabilizing the liposomes with 5.5 mM Triton X-100 for 15 min. The protein was added at a final concentration of 15 μg/ml and the mixture was incubated at 4 °C for 15 min.
(§3) The liposomes were used to measure the C55-PP phosphatase activity of BacA in a membrane environment as follows. For each kinetic assay, 5 μl of a reaction mixture containing 20 μM C15-PP, 20 μM [^14C]C5-PP, 180 μM C5-PP in 20 mM HEPES, pH 7.5, 50 mM NaCl, and 15% glycerol were mixed with 5 μl of protein-free liposomes (as a control) or BacA-containing liposomes. The mixture was then supplemented with UppS at a final concentration of 0.2 mg/ml to initiate the enzymatic synthesis of C55-PP. The EntC peptides were added at various concentrations from a water solution. […] Substrates and products were separated and quantified by thin-layer chromatography as previously described for C55-PP phosphatase assay in detergent.

PgpB-liposomes = experiment: proteoliposome permeabilisation assay (BCECF), PgpB-liposomes; format: biochemical, Escherichia coli; settings: EntC
[6] = tested on: E. faecalis EfΔbacA cells expressing BacAef D106A D110A; experiment: survival test; format: cell-based, Enterococcus faecalis; settings: 0.5 μM EntC, 30 min, 37 °C, three experiments
BacAef [7] = molecular target: T1, BacAef; experiment: UppS-coupled C55-PP phosphatase assay in liposomes, BacAef; format: biochemical; settings: DOPC:DOPG:DOPE liposomes, 20 mM HEPES pH 7.5, 37 °C, 10 min, TLC
Experimental: as §2, §3

[8] = tested on: E. faecalis (V583-derivative strain, WT); format: cell-based, Enterococcus faecalis; settings: 6 μl droplets on a lawn of E. faecalis, BHI 0.75% agar, overnight; representative of three independent experiments
E. faecalis cells = experiment: growth prevention in liquid culture; format: cell-based, Enterococcus faecalis
L. lactis IL1403 = experiment: spot-on-lawn antibacterial assay, L. lactis; format: cell-based, Lactococcus lactis; settings: 6 μl droplets, L. lactis IL1403, M17G agar, overnight
BacAef [9] = molecular target: T1, BacAef; format: binding; settings: DSC, BacAef 33 μM + peptides 66 μM, 60 °C/h, representative of triplicate
Experimental: Thermal stability of BacA protein in different mixtures of peptides was performed by DSC on a MicroCal model VP-DSC (Malvern Panalytical, Malvern, UK). BacA (33 μM) was mixed with different mixtures of peptides at twice the BacA concentration (i.e. 66 μM). Each measurement was preceded by a baseline scan with the standard buffer. Scans were performed at 1 K/min (60 °C/h) temperature ramp between 30 °C and 100 °C. The heat capacity of the buffer was subtracted from that of the protein sample before analysis. The thermodynamic parameters were determined by fitting the data to the following equation: ΔCp(T)=Kd(T)ΔHcalΔHvH/[1+Kd(T)]^2RT^2 where Kd is the equilibrium constant for a two-state process, ΔHvH the enthalpy calculated based on a two-state process and ΔHcal the measured enthalpy.

BacAef [10] = molecular target: T1, BacAef; format: biochemical; settings: DDM micelles; 20 mM Tris-HCl pH 7.4, 400 μM CaCl2, 150 mM NaCl, 0.1% DDM, 50 μM [14C]C55-PP, 10 min, 37 °C, TLC; EntC vs EntC1 p-value = 0.0007; read-out: IC50, BacAef C55-PP phosphatase activity
BacAef E20A = BacAef E20A (Enterococcus faecalis, UniProt A0ACD6TE02, E32A); experiment: ITC, BacAef E20A; format: binding; settings: 20 °C
Experimental: as §1

[11] = tested on: E. faecalis EfΔbacA cells expressing BacAef D106A; experiment: survival test; format: cell-based, Enterococcus faecalis; settings: 0.5 μM EntC, 30 min, 37 °C, three experiments
BacAec [12] = molecular target: T2, BacAec; settings: titration of EntC into BacAec
Experimental: ITC experiments were performed with an ITC200 isothermal titration calorimeter from MicroCal (Malvern Panalytical, Malvern, UK). The experiments were carried out at 20 °C. The protein concentration in the microcalorimeter cell (0.2 ml) was 33 μM. Nineteen 2-μl injections of peptides at 400 μM were performed at intervals of 240 s while stirring at 500 rpm. To limit buffer mismatching effect between the cell and the syringe, and the heat-of-dilution effect for having glycerol in the protein solution, the latter were extensively dialyzed, prior to the ITC measurement, in a buffer containing 20 mM Tris-HCl pH 7.4, 200 mM NaCl, 0.1% DDM, to remove glycerol. Then, the dialysis buffer was used to dilute the EntC peptides to further limit buffer mismatching. The experimental data were fitted to theoretical titration curves with the software supplied by MicroCal (ORIGIN). This software uses the relationship between the heat generated by each injection and ΔH (enthalpy change in kcal/mol), Ka (the association binding constant in M^−1), n (the number of binding sites), total protein concentration and free and total ligand concentrations.

[13] = tested on: E. faecalis EfΔbacA cells expressing BacAef K209A D106A D110A; experiment: survival test; format: cell-based, Enterococcus faecalis; settings: 0.5 μM EntC, 30 min, 37 °C, p ≤ 0.0001, three experiments
E. faecalis = settings: ref [17]; cited from earlier work
[14] = tested on: E. faecalis EfΔbacA cells expressing BacAef K209A; experiment: survival test; format: cell-based, Enterococcus faecalis; settings: 0.5 μM EntC, 30 min, 37 °C, p ≤ 0.0001, three experiments
[15] = tested on: E. faecalis EfΔbacA cells expressing catalytically inactive variants of BacAef (E20A, S26A, R172A); experiment: spot-on-lawn assay, catalytic site mutants; format: cell-based, Enterococcus faecalis

With Enterocin C [EntC] the “susceptibility of EfΔbacA strain” value [1] was “full resistance”, the “crosslinked complex band with BacAef (SDS-PAGE, western blot)” value (BacAef [2]) was “two faint bands appeared above the BacA monomer” and the “susceptibility of EfΔbacA strain with ectopic bacA” value [3] was “fully restored”. For the same substance, the n (BacAef S26A; 400 μM into [BacAef S26A] 33 μM) was 0.80 ± 0.02, the Kd (BacAef S26A; 400 μM into [BacAef S26A] 33 μM, pH 7.4, 0.1% DDM, at least triplicate) was 439 ± 125 nM and the “-TΔS” value (BacAef S26A; into [BacAef S26A]) was 8.5 kcal/mol. For the same substance, the ΔG (BacAef S26A; into [BacAef S26A]) was -8.5 kcal/mol, the ΔH (BacAef S26A; into [BacAef S26A]) was -17.0 kcal/mol and the “% of survival” value [4] was 7.6 ± 1.0 ^e %. The “inhibition of BacAec in liposomes” value (BacAec [5]) was “no inhibitory effect”, the “membrane permeabilization of PgpB-liposomes” value (PgpB-liposomes) was “no permeabilization effect” and the “% of survival” value [6] was 4.0 ± 3.0%. The IC50 (BacAef [7]) was 1200 ± 100 nM, the “antibacterial activity (spot-on-lawn), E. faecalis” value [8] was “E. faecalis was only susceptible to EntC” and the “concentration required to prevent the growth of E. faecalis cells” value (“concentration required” below) (E. faecalis cells; BHI) was 100 nM. For the same substance, the “concentration required” value (E. faecalis cells; M17) was 50 nM, the “concentration required” value (E. faecalis cells; MRS) was 2 nM and the “antibacterial activity (spot-on-lawn), L. lactis” value (L. lactis IL1403) was “sensitivity to both bacteriocins”. For the same substance, the “melting temperature (Tm) of BacAef” value (BacAef [9]; 30-100 °C, Tris-HCl pH 7.5, 0.1% DDM, BacAef alone 66.3 °C) was 83.8 °C, the “enthalpy of denaturation (ΔH) of BacAef” value (BacAef [9]; BacAef alone 26.7 kcal/mol) was 83.7 kcal/mol and the IC50 (BacAef [10]) was 400 ± 100 nM. The n (BacAef E20A; 400 μM into [BacAef E20A] 33 μM) was 0.69 ± 0.01, the Kd (BacAef E20A; 400 μM into [BacAef E20A] 33 μM, pH 7.4, 0.1% DDM, at least triplicate) was 190 ± 40 nM and the “-TΔS” value (BacAef E20A; into [BacAef E20A]) was 13.0 kcal/mol. The ΔG (BacAef E20A; into [BacAef E20A]) was -9 kcal/mol, the ΔH (BacAef E20A; into [BacAef E20A]) was -22.0 kcal/mol and the “% of survival” value [11] was 1.6 ± 1.0%. For the same substance, the “binding to BacAec (ITC)” value (BacAec [12]) was “no binding”, the “% of survival” value [13] was 54% and 54 ± 11 ^d % and the “activity against E. faecalis” value (E. faecalis) was “active against the opportunistic pathogen E. faecalis”. The “% of survival” value [14] was 11% and 11 ± 1.0 ^d % and the “susceptibility of EfΔbacA expressing catalytic site mutant alleles” value [15] was “restored with a plasmid expressing wild-type bacAef or any of the three catalytic site mutant alleles, although a slight decrease of the susceptibility was observed with R172A variant”.

Source: PMC12765074, “Mechanistic insights into enterocin C targeting the undecaprenyl phosphate recycling protein BacA” (The Journal of Biological Chemistry, 2025)
